Source: patent US20140206608A1 (priority 2012, published 2014)
Values after ≈ are worked out from the molar mass of the structure shown. Read-outs that look alike come from different tables or passages of the source. *1 amine or outer side, *2 acyl side, *3 side chain or, on linkers, in order; H or OH if unused. Where a SMILES comes first, the peptide text is derived from it. Side-chain parts run from the residue outwards. [ ]: non-standard residue; d: D form. The star is where a group is joined. γGlu = O=C(O)[C@H](CCC(=O)[*:2])N[*:1]; Stearoyl = CCCCCCCCCCCCCCCCCC(=O)*; Aib = CC(C)(N)C(=O)O

Experiments:
[1] = Solubility testing in buffer systems (HPLC-UV); type: physicochemical; details: buffer system, target concentration 1.0 mg/mL
trypsin = assay: Enzymatic stability testing versus trypsin; type: in vitro ADME; details: human, human recombinant trypsin, pH 8.3; % of degradation after 120 min; 2 μM peptide, 37° C.; read-out: Lability versus enzymatic degradation, Trypsin
Method: The reaction was stopped by addition of ethanol. The samples were analyzed by LC-MS/MS. […] The metabolic lability is given as % of degradation.

[2] = Subchronic effect on body weight in female diet-induced obese (DIO) C57BL/6NCrl mice (method 2); type: in vivo; details: 3 weeks; for Overall weight change: mean ± SEM
Method: Female C57BL/6NCrl mice were housed in groups in a specific pathogen-free barrier facility on a 12 h light/dark cycle with free access to water and high-fat diet. After 14 weeks on high-fat diet, mice were stratified to treatment groups (n=8), so that each group had similar mean body weight.
An aged-matched group with ad libitum access to standard chow and water was included as standard control group.
Before the experiment, mice were subcutaneously (s.c.) injected with vehicle solution and weighed for 3 days to acclimate them to the procedures.
Body weight was recorded daily.
Statistical analyses were performed with Everstat 6.0 by repeated measures two-way ANOVA and Dunnett's post-hoc analyses (glucose profile) and 1-way-ANOVA, followed by Dunnett's post-hoc test (body weight, body fat). Differences versus vehicle-treated DIO control mice were considered statistically significant at the p<0.05 level.

female NMRI-mice = assay: Gastric emptying and intestinal passage in female NMRI-mice; type: in vivo
Method: Female NMRI-mice of a body weight between 20 and 30 g were used. Mice were adapted to housing conditions for at least one week.
Mice were overnight fasted, while water remained available all the time. On the study day, mice were weighed, single-caged and allowed access to 500 mg of feed for 30 min, while water was removed. At the end of the 30 min feeding period, remaining feed was removed and weighed. Then, the test compound/reference compound or its vehicle in the control group was administered subcutaneously. 60 min later, to allow the compound to reach relevant plasma exposure, a coloured, non-caloric bolus was instilled via gavage into the stomach. After another 30 min, the animals were sacrificed and the stomach and the small intestine prepared. The filled stomach was weighed, emptied, carefully cleaned and dried and reweighed. The stomach content, calculated as weight of filled subtracted by the weight of emptied stomach, indicated the degree of gastric emptying. The small intestine was straightened without force and measured in length. Then the distance from the gastric beginning of the gut to the tip of the farthest travelled intestinal content bolus was measured. The intestinal passage was given as ratio in percent of the latter distance and the total length of the small intestine.
Statistical analyses were performed with Everstat 6.0 by 1-way-ANOVA, followed by Dunnett's as post-hoc test. Dunnett's Test was applied to compare versus vehicle control. Differences were considered statistically significant at the p<0.05 level.
30 min later, the assessment of stomach contents and intestinal passage was done (FIG. 8).

neprilysin = neprilysin (Homo sapiens, UniProt P08473); assay: in vitro; details: human recombinant neprilysin, pH 7.5
neprilysin, sequence (P08473 whole entry): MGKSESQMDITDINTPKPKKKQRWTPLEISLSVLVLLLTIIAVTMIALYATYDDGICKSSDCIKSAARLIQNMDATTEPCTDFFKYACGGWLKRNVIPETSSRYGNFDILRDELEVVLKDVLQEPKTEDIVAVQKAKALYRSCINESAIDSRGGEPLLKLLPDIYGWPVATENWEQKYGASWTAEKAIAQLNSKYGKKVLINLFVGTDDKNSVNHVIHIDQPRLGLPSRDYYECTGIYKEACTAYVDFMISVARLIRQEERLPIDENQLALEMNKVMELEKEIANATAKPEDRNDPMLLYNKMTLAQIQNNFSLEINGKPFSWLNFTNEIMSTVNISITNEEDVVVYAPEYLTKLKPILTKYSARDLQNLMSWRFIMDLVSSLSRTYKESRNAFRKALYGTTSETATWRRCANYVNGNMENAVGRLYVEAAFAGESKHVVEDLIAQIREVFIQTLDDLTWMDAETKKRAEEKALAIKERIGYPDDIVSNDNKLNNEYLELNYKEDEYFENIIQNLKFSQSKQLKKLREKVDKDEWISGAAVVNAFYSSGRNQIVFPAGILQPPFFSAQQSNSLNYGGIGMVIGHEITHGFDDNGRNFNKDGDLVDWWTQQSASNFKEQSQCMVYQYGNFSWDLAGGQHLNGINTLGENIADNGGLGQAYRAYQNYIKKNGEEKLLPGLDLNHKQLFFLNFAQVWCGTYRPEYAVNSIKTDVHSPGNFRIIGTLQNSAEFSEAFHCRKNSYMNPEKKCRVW
Method: In the experiment, GLP-1 was used as a positive control. The incubation was started by addition of the enzyme fraction to the pre-warmed buffer solution. […] The reaction was stopped by addition of ethanol. The samples were analyzed by LC-MS/MS. The percentage of biotransformation was measured by extent of depletion of the test compound in mass spectrometry. Therefore the peak area of the MRM ion signal of the 0h time point (100%) versus the incubated time points was measured. The metabolic lability is given as % of degradation.

## CCCCCCCCCCCCCCCCCC(=O)N[C@@H](CCC(=O)NCCCC[C@H](NC(=O)[C@H](CCC(N)=O)NC(=O)[C@@H](NC(=O)[C@H](CO)NC(=O)[C@H](CC(C)C)NC(=O)[C@H](CC(=O)O)NC(=O)[C@H](CO)NC(=O)[C@@H](NC(=O)[C@H](Cc1ccccc1)NC(=O)[C@@H](NC(=O)CNC(=O)[C@H](CCC(=O)O)NC(=O)C(C)(C)NC(=O)[C@@H](N)Cc1ccc(O)cc1)[C@@H](C)O)[C@@H](C)O)[C@@H](C)CC)C(=O)N[C@@H](CCC(=O)O)C(=O)N[C@@H](CCC(=O)O)C(=O)N[C@@H](CCC(=O)O)C(=O)N[C@@H](C)C(=O)N[C@H](C(=O)N[C@@H](CCCNC(=N)N)C(=O)N[C@@H](CC(C)C)C(=O)N[C@@H](Cc1ccccc1)C(=O)N[C@H](C(=O)N[C@@H](CCC(=O)O)C(=O)N[C@@H](Cc1c[nH]c2ccccc12)C(=O)N[C@@H](CC(C)C)C(=O)N[C@@H](CCCCN)C(=O)N[C@@H](C)C(=O)NCC(=O)NCC(=O)N1CCC[C@H]1C(=O)N[C@@H](CO)C(=O)N[C@@H](CO)C(=O)NCC(=O)N[C@@H](C)C(=O)N1CCC[C@H]1C(=O)N1CCC[C@H]1C(=O)N1CCC[C@H]1C(=O)N[C@@H](CO)C(N)=O)[C@@H](C)CC)C(C)C)C(=O)O [SEQ ID NO: 10, Y-Aib-E-G-T-F-T-S-D-L-S-I-Q-K(γE-x70)-EEEAVRLFIEWLKAGGPSSGAPPPS-NH2] (H-Y[Aib]EGTFTSDLSIQK([γGlu-Stearoyl])EEEAVRLFIEWLKAGGPSSGAPPPS-NH2)
[1]; pH 4.5, read-out: Solubility (pH 4.5)
  solubility at 2 h: 120 µg/mL (≈ 26.3 µM)
[1]; pH 7.4, read-out: Solubility (pH 7.4)
  solubility at 2 h: > 1000 µg/mL
trypsin
  metabolised at 2 h, 2 μM: 33%
[2]; 3 μg/kg s.c. once daily
  decrease of body weight, relative change from baseline: 8.6%
  Overall weight change: -3.6 ± 1.0 g
[2]; 10 μg/kg s.c. once daily
  decrease of body weight, relative change from baseline: 14.3%
  Overall weight change: -5.5 ± 0.8 g
Female NMRI-mice; 1 μg/kg s.c.
  increase of remaining gastric contents: 1%
  reduction of intestinal passage: 28%
Female NMRI-mice; 10 μg/kg s.c.
  increase of remaining gastric contents: 28%
  reduction of intestinal passage: 58%
Female NMRI-mice; 100 μg/kg s.c.
  increase of remaining gastric contents: 68%
  reduction of intestinal passage: 64%
neprilysin
  metabolised at 2 h, 2 μM: 0%
